Measurements from patent publication US20030040486A1 (priority 2001, published 2003).

How the values were obtained:
male Sprague-Dawley rats [1] = assay: Rat hindpaw withdrawal latency (HWL) to mechanical stimulation, Randall Selitto Test; assay type: in vivo; conditions: for HWL increase using mechanical stimulation: drug alone, intrathecal, FIGS. 2C and 2D; for % Changes of HWL to Mechanical Stimulation: intrathecal every 12 hrs: morphine 8 μg, nociceptin 10 nmol, or rotated every two days
male Sprague-Dawley rats [2] = assay: Development of tolerance in the rat HWL study (thermal and mechanical stimulation); assay type: in vivo; conditions: for time to complete tolerance: intrathecal every 12 hrs, both hindpaws, thermal and mechanical HWL
male Sprague-Dawley rats [3] = assay: Rat hindpaw withdrawal latency (HWL) to thermal stimulation, hot-plate test; assay type: in vivo; conditions: for HWL increase using thermal stimulation: drug alone, intrathecal, FIGS. 2A and 2B; for % Changes of HWL to Thermal Stimulation: intrathecal every 12 hrs: morphine 8 μg, nociceptin 10 nmol, or rotated every two days
μ-opioid receptors = conditions: Hao et al. 1997; cited from earlier work
[4] = intrathecal administration; Jhamandas et al. 1998; cited from earlier work

CN1CC[C@]23c4c5ccc(O)c4O[C@H]2[C@@H](O)C=C[C@H]3[C@H]1C5 [Morphine, morphine]
HWL increase using mechanical stimulation (male Sprague-Dawley rats [1]; day 1): ~55% | time to complete tolerance (male Sprague-Dawley rats [2]): 6 days | HWL increase using thermal stimulation (male Sprague-Dawley rats [3]; day 1): approximately 67%

CC(C)C[C@H](NC(=O)[C@H](CCCCN)NC(=O)[C@H](CCCN=C(N)N)NC(=O)[C@H](C)NC(=O)[C@H](CO)NC(=O)[C@H](CCCCN)NC(=O)[C@H](CCCN=C(N)N)NC(=O)[C@H](C)NC(=O)CNC(=O)[C@@H](NC(=O)[C@H](Cc1ccccc1)NC(=O)CNC(=O)CNC(=O)[C@@H](N)Cc1ccccc1)[C@@H](C)O)C(=O)N[C@@H](C)C(=O)N[C@@H](CC(N)=O)C(=O)N[C@@H](CCC(N)=O)C(=O)O [Nociceptin, nociceptin]
HWL increase using mechanical stimulation (male Sprague-Dawley rats [1]; day 1): 60-70% | % Changes of HWL to Mechanical Stimulation (male Sprague-Dawley rats [1]; day 1, left hindpaw): 69.90 ± 4.11% | % Changes of HWL to Mechanical Stimulation (male Sprague-Dawley rats [1]; day 1, right hindpaw): 61.26 ± 3.85% | % Changes of HWL to Mechanical Stimulation (male Sprague-Dawley rats [1]; day 2, left hindpaw): 31.28 ± 5.03% | % Changes of HWL to Mechanical Stimulation (male Sprague-Dawley rats [1]; day 2, right hindpaw): 30.79 ± 6.58% | % Changes of HWL to Mechanical Stimulation (male Sprague-Dawley rats [1]; day 3, left hindpaw): 10.59 ± 0.93% | % Changes of HWL to Mechanical Stimulation (male Sprague-Dawley rats [1]; day 3, right hindpaw): 10.08 ± 1.05% | % Changes of HWL to Mechanical Stimulation (male Sprague-Dawley rats [1]; day 4, left hindpaw): −0.62 ± 1.45% | % Changes of HWL to Mechanical Stimulation (male Sprague-Dawley rats [1]; day 4, right hindpaw): −0.76 ± 2.32% | binding to μ-opioid receptors (μ-opioid receptors): does not bind | tolerance developed (male Sprague-Dawley rats [2]; by day 2, nociceptin alone group): 50% | time to complete tolerance (male Sprague-Dawley rats [2]): 4 days | duration of the antinociceptive response evoked by intrathecal deltorphin [4]: increase the duration | HWL increase using thermal stimulation (male Sprague-Dawley rats [3]; day 1): approximately 90% | % Changes of HWL to Thermal Stimulation (male Sprague-Dawley rats [3]; day 1, left hindpaw): 93.49 ± 3.77% | % Changes of HWL to Thermal Stimulation (male Sprague-Dawley rats [3]; day 1, right hindpaw): 90.42 ± 2.65% | % Changes of HWL to Thermal Stimulation (male Sprague-Dawley rats [3]; day 2, left hindpaw): 39.91 ± 3.66% | % Changes of HWL to Thermal Stimulation (male Sprague-Dawley rats [3]; day 2, right hindpaw): 43.02 ± 2.12% | % Changes of HWL to Thermal Stimulation (male Sprague-Dawley rats [3]; day 3, left hindpaw): 9.46 ± 2.31% | % Changes of HWL to Thermal Stimulation (male Sprague-Dawley rats [3]; day 3, right hindpaw): 12.01 ± 1.48% | % Changes of HWL to Thermal Stimulation (male Sprague-Dawley rats [3]; day 4, left hindpaw): −2.18 ± 2.07% | % Changes of HWL to Thermal Stimulation (male Sprague-Dawley rats [3]; day 4, right hindpaw): −3.67 ± 1.61%
